Results reported in patent US10041933B2, “Modulators of the interaction of astrin and raptor, and uses thereof in cancer therapy” (ALBERT-LUDWIGS-UNIVERSITÄT FREIBURG, priority 2013, dated 2018).

How the values were obtained:
[1] = tested on: oral squamous carcinoma cell lines; details: cited from earlier work
[2] = tested on: p70-S6K1-pT389 (mTORC1 substrate); experiment: Immunoblot of mTORC1 substrate p70-S6K1-pT389 after insulin/aa induction; format: cell-based; details: astrin knockdown, insulin and aa 10 minutes; Rapamycin 100 nM, PP242 250 nM
Experimental: Experiments were performed in HeLa α Kyoto cells, and BT474, MDA-MB-231, MDA-MB-453, T-47D, MCF-7 breast cancer cell lines. […] Cultivation of breast cancer cell lines T-47D, BT474, MDA-MB-231 and MDA-MB-453 was done in the following media: RPMI (PAA, Pasching, Austria) supplemented with 100 nM insulin. MCF7 cells were cultivated in RPMI (PAA, Pasching, Austria). Insulin/aa induction was done as described (Sonntag et al., 2012). Prior to stress induction with 500 μM Arsenite or 2 mM H2O2, cells were starved for 16 h in DMEM without Glucose and fetal calf serum (PAA, Pasching, Austria) supplemented with 1.5% L-glutamine.
Stress granules were analysed after 30 min. stress induction. Apoptosis was analysed after 1-3 hours stress induction. Inhibitors were obtained from Calbiochem, Merck KGaA, Darmstadt, Germany and Sigma Aldrich, St. Louis, USA; dissolved in DMSO, and applied 30 min. prior to all induction regimens, at the following concentrations: Rapamycin (100 nM), PP242 (250 nM), Wortmannin (200 nM), Cycloheximide (2 μg/mL); HeLa cells were synchronized with Nocodazole (400 ng/mL) and subsequent mitotic shake off at G2/M, and released as described (Thein, K. H., Kleylein-Sohn, J., Nigg, E. A., and Gruneberg, U. (2007). Astrin is required for the maintenance of sister chromatid cohesion and centrosome integrity. J Cell Biol 178, 345-354). […]

CCCCCCCC/C=C\CCCCCCCCCCCCOP(=O)([O-])OCC[N+](C)(C)C [Erufosine]
cytotoxicity [1]: dose-dependent cytotoxicity in all cell lines

CC(C)n1nc(-c2cc3cc(O)ccc3[nH]2)c2c(N)ncnc21 [PP242]
p70-S6K1-pT389 in astrin deficient cells [2]: potently inhibited
